target: T1, full-length human PKCι (Homo sapiens, UniProt P41743); test: PKCι IC50 IMAP assay, full-length PKCι at 150 μM ATP; assay type: biochemical; settings: read-out: IC50 in IMAP assay against full length PKCi at 150 μM ATP
T1 construct: Recombinant, full-length human PKCι expressed in Sf21 insect cells is also commercially available; purchased; host or cells: Sf21 insect cells
T1 sequence (P41743 1-596): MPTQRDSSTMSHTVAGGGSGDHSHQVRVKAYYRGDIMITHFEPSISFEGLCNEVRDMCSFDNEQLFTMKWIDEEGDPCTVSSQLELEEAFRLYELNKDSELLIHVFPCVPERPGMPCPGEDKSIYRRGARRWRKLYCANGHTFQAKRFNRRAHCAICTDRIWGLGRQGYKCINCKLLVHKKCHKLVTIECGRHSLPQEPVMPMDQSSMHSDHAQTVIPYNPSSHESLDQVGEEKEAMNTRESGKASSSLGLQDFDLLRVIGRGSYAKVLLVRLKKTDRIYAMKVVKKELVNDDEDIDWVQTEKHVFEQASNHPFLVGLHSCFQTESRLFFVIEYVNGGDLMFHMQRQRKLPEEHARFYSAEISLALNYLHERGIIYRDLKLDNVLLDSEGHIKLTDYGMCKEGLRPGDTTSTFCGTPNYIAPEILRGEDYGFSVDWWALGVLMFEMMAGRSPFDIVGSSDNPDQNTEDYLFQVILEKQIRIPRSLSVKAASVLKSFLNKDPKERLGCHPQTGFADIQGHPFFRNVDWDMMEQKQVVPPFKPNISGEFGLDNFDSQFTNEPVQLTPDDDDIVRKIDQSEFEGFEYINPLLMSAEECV
In short: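 Phosphorylation of a 5FAM-tagged PKCε pseudopeptide-derived substrate (100 nM) by full-length recombinant human PKCι was monitored by IMAP fluorescence polarisation. ATP was held at 150 μM, five times its apparent KM, with 60 min room-temperature incubation.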

| SMILES | IC50 [nM] |
| --- | --- |
| CN1CCC(N(C)c2nc(-c3ccnc4[nH]c(C(F)(F)F)cc34)nc3cncc(C4CC4)c23)CC1 [Example 2081, [5-Cyclopropyl-2-(2-trifluoromethyl-1H-pyrrolo[2,3-b]pyridin-4-yl)-pyrido[3,4-d]pyrimidin-4-yl]-methyl-(1-methyl-piperidin-4-yl)-amine] | < 100 |
| c1cc(-c2nc(N3CCNCC3)c3c(C4CCC4)cncc3n2)c2cc[nH]c2n1 [Example 2082, 5-Cyclobutyl-4-piperazin-1-yl-2-(1H-pyrrolo[2,3-b]pyridin-4-yl)-pyrido[3,4-d]pyrimidine] | < 100 |
| CN1CCC(N(C)c2nc(-c3ccnc(Nc4c(F)cccc4F)c3)nc3cncc(C4CC4)c23)CC1 [Example 2083, {5-Cyclopropyl-2-[2-(2,6-difluoro-phenylamino)-pyridin-4-yl]-pyrido[3,4-d]pyrimidin-4-yl}-methyl-(1-methyl-piperidin-4-yl)-amine] | < 100 |
| CN1CCC(Nc2nc(-c3ccnc(Nc4c(F)cccc4F)c3)nc3cncc(C4CC4)c23)CC1 [Example 2084, {5-Cyclopropyl-2-[2-(2,6-difluoro-phenylamino)-pyridin-4-yl]-pyrido[3,4-d]pyrimidin-4-yl}-(1-methyl-piperidin-4-yl)-amine] | < 100 |
| CC(=O)N1CCC(Nc2nc(-c3ccnc(Nc4c(F)cccc4F)c3)nc3cncc(C4CC4)c23)CC1 [Example 2085, 1-(4-{5-Cyclopropyl-2-[2-(2,6-difluoro-phenylamino)-pyridin-4-yl]-pyrido[3,4-d]pyrimidin-4-ylamino}-piperidin-1-yl)-ethanone] | 100 to 1000 |
| CC(C)(c1ccccc1)c1cc2c(-c3nc(N4CCNCC4)c4c(C5CC5)cncc4n3)ccnc2[nH]1 [Example 2086, 5-Cyclopropyl-2-[2-(1-methyl-1-phenyl-ethyl)-1H-pyrrolo[2,3-b]pyridin-4-yl]-4-piperazin-1-yl-pyrido[3,4-d]pyrimidine] | < 100 |
| Clc1c[nH]c2nccc(-c3nc(N4CCNCC4)c4c(C5CC5)cncc4n3)c12 [Example 2087, 2-(3-Chloro-1H-pyrrolo[2,3-b]pyridin-4-yl)-5-cyclopropyl-4-piperazin-1-yl-pyrido[3,4-d]pyrimidine] | < 100 |
| CN(c1nc(-c2ccnc3[nH]c(C(F)(F)F)cc23)nc2cncc(C3CC3)c12)[C@@H]1CCNC1 [Example 2088, [5-Cyclopropyl-2-(2-trifluoromethyl-1H-pyrrolo[2,3-b]pyridin-4-yl)-pyrido[3,4-d]pyrimidin-4-yl]-methyl-(R)-pyrrolidin-3-yl-amine] | < 100 |
| c1ccc2c(Nc3cc(-c4nc(N5CCNCC5)c5c(C6CC6)cncc5n4)ccn3)nccc2c1 [Example 2089, [4-(5-Cyclopropyl-4-piperazin-1-yl-pyrido[3,4-d]pyrimidin-2-yl)-pyridin-2-yl]-iso[D4],[D3]uinolin-1-yl-amine] | < 100 |
| c1ccc2c(c1)[nH]c1nccc(-c3nc(N4CCNCC4)c4c(C5CCC5)cncc4n3)c12 [Example 2090, 4-(5-Cyclobutyl-4-piperazin-1-yl-pyrido[3,4-d]pyrimidin-2-yl)-9H-pyrido[2,3-b]indole] | 100 to 1000 |
| c1ccc2c(c1)[nH]c1nccc(-c3nc(N4CCNCC4)c4ccncc4n3)c12 [Example 2091, 4-(4-Piperazin-1-yl-pyrido[3,4-d]pyrimidin-2-yl)-9H-pyrido[2,3-b]indole] | < 100 |
| Cc1cc2c(-c3nc(N4CCNCC4)c4c(C5CC5)cnc(Cl)c4n3)ccnc2[nH]1 [Example 2092, 8-Chloro-5-cyclopropyl-2-(2-methyl-1H-pyrrolo[2,3-b]pyridin-4-yl)-4-piperazin-1-yl-pyrido[3,4-d]pyrimidine] | < 100 |
| C=Cc1cncc2nc(-c3ccnc(Nc4c(F)cccc4F)c3)nc(N3CCNCC3)c12 [Example 2094, (2,6-Difluoro-phenyl)-[4-(4-piperazin-1-yl-5-vinyl-pyrido[3,4-d]pyrimidin-2-yl)-pyridin-2-yl]-amine] | < 100 |
| CN(c1nc(-c2ccnc(Nc3ncc(F)cc3F)c2)nc2cncc(C3CC3)c12)C1CCNCC1 [Example 2095, {5-Cyclopropyl-2-[2-(3,5-difluoro-pyridin-2-ylamino)-pyridin-4-yl]-pyrido[3,4-d]pyrimidin-4-yl}-methyl-piperidin-4-yl-amine] | < 100 |
| CC(=O)N1CCC(N(C)c2nc(-c3ccnc(Nc4c(F)cccc4F)c3)nc3cncc(C4CC4)c23)CC1 [Example 2096, 1-[4-({5-Cyclopropyl-2-[2-(2,6-difluoro-phenylamino)-pyridin-4-yl]-pyrido[3,4-d]pyrimidin-4-yl}-methyl-amino)-piperidin-1-yl]-ethanone] | 100 to 1000 |
| c1ccc2c(c1)CC(Nc1cc(-c3nc(N4CCNCC4)c4c(C5CC5)cncc4n3)ccn1)C2 [Example 2097] | < 100 |
| c1ccc2c(c1)CC[C@H]2Nc1cc(-c2nc(N3CCNCC3)c3c(C4CC4)cncc3n2)ccn1 [Example 2098, [4-(5-Cyclopropyl-4-piperazin-1-yl-pyrido[3,4-d]pyrimidin-2-yl)-pyridin-2-yl]-(R)-indan-1-yl-amine] | < 100 |
| c1ccc2c(c1)CC[C@@H]2Nc1cc(-c2nc(N3CCNCC3)c3c(C4CC4)cncc3n2)ccn1 [Example 2099, [4-(5-Cyclopropyl-4-piperazin-1-yl-pyrido[3,4-d]pyrimidin-2-yl)-pyridin-2-yl]-(S)-indan-1-yl-amine] | < 100 |
| Fc1cccc(F)c1Nc1cc(-c2nc(N3CCNCC3)c3c(C4CC4)cnc(Cl)c3n2)ccn1 [Example 2100, [4-(8-Chloro-5-cyclopropyl-4-piperazin-1-yl-pyrido[3,4-d]pyrimidin-2-yl)-pyridin-2-yl]-(2,6-difluoro-phenyl)-amine] | < 100 |
| Fc1cccc(F)c1Nc1cc(-c2nc(N3CCNCC3)c3c(C4CC4)cnc(F)c3n2)ccn1 [Example 2101, [4-(5-Cyclopropyl-8-fluoro-4-piperazin-1-yl-pyrido[3,4-d]pyrimidin-2-yl)-pyridin-2-yl]-(2,6-difluoro-phenyl)-amine] | < 100 |
| Fc1ncc(C2CC2)c2c(N3CCNCC3)nc(-c3ccnc4[nH]c(C(F)(F)F)cc34)nc12 [Example 2102, 5-Cyclopropyl-8-fluoro-4-piperazin-1-yl-2-(2-trifluoromethyl-1H-pyrrolo[2,3-b]pyridin-4-yl)-pyrido[3,4-d]pyrimidine] | < 100 |
| Fc1cccc(F)c1Nc1cc(-c2nc(NCC3CCN(C4CCC4)CC3)c3c(C4CC4)cncc3n2)ccn1 [Example 2103, (1-Cyclobutyl-piperidin-4-ylmethyl)-{5-cyclopropyl-2-[2-(2,6-difluoro-phenylamino)-pyridin-4-yl]-pyrido[3,4-d]pyrimidin-4-yl}-amine] | 100 to 1000 |
| c1cc(Nc2cc(-c3nc(N4CCNCC4)c4c(C5CC5)cncc4n3)ccn2)c2nonc2c1 [Example 2104, Benzo[1,2,5]oxadiazol-4-yl-[4-(5-cyclopropyl-4-piperazin-1-yl-pyrido[3,4-d]pyrimidin-2-yl)-pyridin-2-yl]-amine] | < 100 |
| FC(F)(F)c1cc2c(-c3nc(N4CCNCC4)c4c(C5CCCC5)cncc4n3)ccnc2[nH]1 [Example 2105, 5-Cyclopentyl-4-piperazin-1-yl-2-(2-trifluoromethyl-1H-pyrrolo[2,3-b]pyridin-4-yl)-pyrido[3,4-d]pyrimidine] | < 100 |
| FC(F)c1cc2c(-c3nc(N4CCNCC4)c4c(C5CC5)cncc4n3)ccnc2[nH]1 [Example 2106, 5-Cyclopropyl-2-(2-difluoromethyl-1H-pyrrolo[2,3-b]pyridin-4-yl)-4-piperazin-1-yl-pyrido[3,4-d]pyrimidine] | < 100 |
| Fc1cccc(F)c1Nc1cc(-c2nc(NCC3CCNCC3)c3c(C4CC4)cncc3n2)ccn1 [Example 2107, {5-Cyclopropyl-2-[2-(2,6-difluoro-phenylamino)-pyridin-4-yl]-pyrido[3,4-d]pyrimidin-4-yl}-piperidin-4-ylmethyl-amine] | < 100 |
| COCC(C)(C)c1cc2c(-c3nc(N4CCNCC4)c4c(C5CC5)cncc4n3)ccnc2[nH]1 [Example 2108, 5-Cyclopropyl-2-[2-(2-methoxy-1,1-dimethyl-ethyl)-1H-pyrrolo[2,3-b]pyridin-4-yl]-4-piperazin-1-yl-pyrido[3,4-d]pyrimidine] | < 100 |
| COCC(C)(C)c1cc2c(-c3nc(N4CCNCC4)c4c(C5CCC5)cncc4n3)ccnc2[nH]1 [Example 2109, 5-Cyclobutyl-2-[2-(2-methoxy-1,1-dimethyl-ethyl)-1H-pyrrolo[2,3-b]pyridin-4-yl]-4-piperazin-1-yl-pyrido[3,4-d]pyrimidine] | < 100 |
| CN(c1nc(-c2ccnc(Nc3c(F)cccc3F)c2)nc2cncc(C3CC3)c12)C1CCN(C2CCC2)CC1 [Example 2110, (1-Cyclobutyl-piperidin-4-yl)-{5-cyclopropyl-2-[2-(2,6-difluoro-phenylamino)-pyridin-4-yl]-pyrido[3,4-d]pyrimidin-4-yl}-methyl-amine] | 100 to 1000 |
